Measurements published in PMC8629650, “Novel Elongator Protein 2 Inhibitors Mitigating Tumor Necrosis Factor-α Induced Osteogenic Differentiation Inhibition” (BioMed Research International, 2021).
Like-named read-outs stand apart in the source and are kept apart here.

Experiments:
mouse ELP2 protein = molecular target: T1, mouse ELP2 protein (Mus musculus, UniProt Q91WG4); experiment: Surface plasmon resonance (SPR) affinity analysis, compounds fixed on the chip; type: binding; settings: for koff: read-out: Avg Koff; for kon: read-out: Avg Kon; for dissociation rate (in words): excluded from further testing
T1 sequence (Q91WG4 1-831): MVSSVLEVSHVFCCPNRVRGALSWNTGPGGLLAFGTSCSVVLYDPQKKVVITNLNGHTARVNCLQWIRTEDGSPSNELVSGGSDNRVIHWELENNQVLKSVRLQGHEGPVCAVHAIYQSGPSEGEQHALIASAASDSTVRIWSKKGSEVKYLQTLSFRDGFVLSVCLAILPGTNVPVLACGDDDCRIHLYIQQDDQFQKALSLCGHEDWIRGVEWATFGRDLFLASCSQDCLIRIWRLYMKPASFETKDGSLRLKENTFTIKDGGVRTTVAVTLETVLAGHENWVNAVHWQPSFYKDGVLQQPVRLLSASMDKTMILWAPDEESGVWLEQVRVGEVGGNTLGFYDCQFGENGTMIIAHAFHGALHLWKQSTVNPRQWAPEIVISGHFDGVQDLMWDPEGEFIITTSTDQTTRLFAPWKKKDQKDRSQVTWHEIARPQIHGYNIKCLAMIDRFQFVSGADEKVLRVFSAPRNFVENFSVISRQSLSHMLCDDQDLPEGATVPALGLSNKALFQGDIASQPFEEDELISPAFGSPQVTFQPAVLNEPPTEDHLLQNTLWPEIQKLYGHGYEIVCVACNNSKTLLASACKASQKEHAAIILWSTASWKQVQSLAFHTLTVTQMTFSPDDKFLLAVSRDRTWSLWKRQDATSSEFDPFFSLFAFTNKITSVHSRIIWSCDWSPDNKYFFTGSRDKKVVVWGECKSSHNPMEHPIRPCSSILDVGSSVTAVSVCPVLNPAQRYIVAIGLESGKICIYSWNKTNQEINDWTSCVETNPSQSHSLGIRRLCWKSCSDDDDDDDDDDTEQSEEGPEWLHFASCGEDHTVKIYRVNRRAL
Description: To validate the binding affinity of the candidate compounds with ELP2 protein, we tested the binding affinity through SPR assay. The experiment was performed as previous reported. Briefly, the candidate molecules are crossed onto the chip surface by hydrogen substitution reaction. During the experimental SPR, the chips were first primed with running buffer (1x PBS containing 5% DMSO). […] To validate the reliability of our method, we selected biotin and rapamycin binding with FKBP12 as a system control. Additionally, the solvents DMSO for compounds and PBS (pH = 7.0) for proteins were measured individually as blank controls and background noise controls.
Under the technique of photo-cross-linker biosensor chip, the candidate compounds were immobilized onto the chemically modified chip surface in random orientations and without any attached label or linker. After the compounds were fixed onto the surface of the chip, ELP2 protein solved in PBS were passed over the chip surface. The original sensor gram information was collected in real time.
The raw sensor gram information was collected in real time. The binding of each compound to the ELP2 protein during each cycle is represented by the response unit (RU) of surface resonance.

MC3T3-E1 cells [1] = experiment: Mineralization assessment by Alizarin Red S staining; type: cell-based; settings: day 35, vs. TNF-α control
Source text: (§1) As reported, in two differentiation cell models, the culture medium was replaced every 3 days till 35th day. Mineralization of the cell was found by staining using the Optimized Alizarin Red S Stain Kit by the kit instructions.
(§2) In order to test the function of the candidate compounds on the mineralization activity during osteoblasts differentiation, the self-differentiation (SD) model and inflammatory-differentiated (ID) model cells were stained with Alizarin Red S staining on day 35 after differentiation induction, and the mineralization activity of each group can be estimated by the number of stained spots.
(§3) Figure 5 Alizarin Red S staining of differentiated osteogenic cells, the self-differentiation (SD) model, and inflammatory-differentiated (ID) model cells were stained with Alizarin Red S staining on day 35 after differentiation induction, and the mineralization activity of each group can be estimated by the number of stained spots (bar = 50 μm).

C2C12 cells [2] = experiment: as above; type: cell-based; settings: day 35, vs. TNF-α control
Source text: as §1, §2, §3

[3] = system: osteogenic differentiation marker proteins in differentiation model cells; experiment: Western blot of osteogenic differentiation markers after TNF-α treatment; type: cell-based; settings: day 7, vs. TNF-α treatment
Description: After treatment, using PBS to wash the cells, the cells were lysed with RIPA lysis buffer. The cell lysate was then separated by SDS-PAGE. All proteins were transferred to PVDF membranes (Bio-Rad, USA). The PVDF membrane was then blocked with 5% skim milk in Tris-buffered physiological saline -0.1% Tween-20 for 1 hour and incubated with the following primary antibody: anti-ALP antibody (rabbit), anti-COL-1 antibody (mouse), anti-OCN antibody (mouse), anti-BMP-2 antibody (mouse), anti-Runx2 antibody (mouse), Anti-Osterix (rabbit), and anti-β-actin (mouse), followed by suitable horseradish peroxidase- (HRP-) labeled secondary antibody, blocking buffer for goat anti-rabbit IgG. Images were captured using G&E imaging system.
In order to investigate the changes in osteogenic differentiation associated molecules including COL-I, ALP, OCN, BMP-2, RUNX-2, and OSX genes, we performed Q-PCR and Western blot analysis on the differentiation cellular models on the 7th day after osteoblast cell differentiation are shown in Table 2. […] The level of above gene expression was raised in the 2# and the 5# candidate-treated cell with cell morphology phenotype differentiation when compared to the cell stimulated with TNF-α (Figure 6). A further study of the expression of osteoblastic markers at the protein level was performed using Western blot. […]

C2C12 cells [4] = experiment: Alkaline phosphatase (ALP) activity under TNF-α-induced osteogenic differentiation inhibition, ID model; type: cell-based; settings: for effect on TNF-α-induced inhibition of osteoblast differentiation (ALP stain and activity) / EC50: C2C12 cells; for effect on TNF-α-induced inhibition of osteoblast differentiation (ALP stain and activity): vs. TNF-α group; for EC50: Mus musculus, ID model, TNF-α; for effect on TNF-α-induced inhibition (ALP), data not shown: cell model not specified (C2C12 / MC3T3-E1)
Description: (§4) C2C12 cells were kept in DMEM complemented with the 10% fetal dairy serum and 1% penicillin/streptomycin and MC3T3-E1 cells in minimally needed culture medium (MEM, HyClone, GE Healthcare, USA) supplemented with 10% fetal bovine serum and 1% penicillin/streptomycin, were grown individually, and then cultured at 37.0°C, 5% CO2. As previously reported, cells were cultured for differentiation induction in the presence of TNF-α with or without our candidate compounds.
(§5) […] was detected by ALP activity via the alkaline phosphatase assay kit followed by the instruction. A BioTek microplate spectrophotometer was used to assay the apparent density at the wavelength of 405 nm. ALP activity values are equally common in the density protein found in stem cells determined to use the BCA Protein Assay Kit.
(§6) To determine the effect of the candidate compounds on TNF-α-induced osteogenic differentiation inhibition, we examined the activity of osteogenic marker alkaline phosphatase in the cells. As mentioned in Materials and Method, cells were grown in an adequate osteoblast differentiation environment and tested the alkaline phosphatase activity.
(§7) Figure 3 The ALP stain and activity measurements of 2# and 5# candidate on C2C12 and MC3T3-E1 cell osteogenic differentiations. 2# and 5# compounds show remarkable mitigation against TNF-α induced ALP activity inhibition. The ALP staining observation in each group (a, c). The relative ALP activity were measured from the cell lysates of each group (b, d). Data are mean ± SD; ^∗P < 0.05, ^∗∗P < 0.01, each experiment group vs. the TNF-α treatment cell group.

MC3T3-E1 cells [5] = experiment: Alkaline phosphatase (ALP) activity under TNF-α-induced osteogenic differentiation inhibition, SD model; type: cell-based; settings: for EC50: Mus musculus, SD model, TNF-α; for effect on TNF-α-induced inhibition of osteoblast differentiation (ALP stain and activity): vs. TNF-α group
Description: as §4, §5, §6, §7

[6] = system: COL-I, ALP, OCN, BMP-2, RUNX-2 and OSX genes in C2C12 and MC3T3-E1 cells; experiment: Q-PCR of osteogenic differentiation marker genes after TNF-α stimulation; type: cell-based; settings: day 7, C2C12 and MC3T3-E1, vs. TNF-α-stimulated cells
Description: The total mRNA was extracted from cell culture using TRIzol reagent (Thermo Scientific USA). The concentration and quality of the RNA were checked using a NanoDrop™ 8000 spectrophotometer, and cDNA was then synthesized. Gene expression according to the recommendations of the reverse transcription kit was detected. Host gene β-actin was selected as the reference gene, and the gene expression level analysis was calculated by the 2^-ΔΔCt quantification method.
In order to investigate the changes in osteogenic differentiation associated molecules including COL-I, ALP, OCN, BMP-2, RUNX-2, and OSX genes, we performed Q-PCR and Western blot analysis on the differentiation cellular models on the 7th day after osteoblast cell differentiation are shown in Table 2. […] The level of above gene expression was raised in the 2# and the 5# candidate-treated cell with cell morphology phenotype differentiation when compared to the cell stimulated with TNF-α (Figure 6). A further study of the expression of osteoblastic markers at the protein level was performed using Western blot.
Figure 6 Effect of 2# and 5# treatment on TNF-α-stimulated C2C12 (a) and MC3T3-E1 (b) cell osteoblast differentiation-associated marker gene expression. Q-PCR analysis in the differentiation was conducted on the 7th day after osteoblast cell differentiation in the ID and SD models. […]

[7] = SPR, Elp2 protein 200 nM to 3200 nM passed over the immobilized compound, read-out: Avg KD
[8] = SPR, Elp2 protein 200 nM to 3200 nM passed over the immobilized compound

Structure (SMILES) | Kd (mouse ELP2 protein; [7]) | koff (mouse ELP2 protein; [8]) | kon (mouse ELP2 protein; [8]) | also measured
Cc1cc(O)cc(=O)n1C[C@H](O)c1ccc(O)cc1 [9#] | 149 µM | 0.075 s⁻¹ | 502 M⁻¹ s⁻¹ | dissociation rate (in words) (mouse ELP2 protein; SPR): much faster dissociation rates
COc1ccc2c(c1)C(CCn1c(C)cc(O)cc1=O)C(=O)N2 (centres unmarked) [10#] | – | 0.504 s⁻¹ | 2.18 M⁻¹ s⁻¹ | –
COc1ccc([C@H](CC(=O)N[C@@H](Cc2ccccc2)C(N)=O)c2oc(C)cc(=O)c2O)cc1 [1#] | 118 µM | 0.234 s⁻¹ | 1980 M⁻¹ s⁻¹ | dissociation rate (in words) (mouse ELP2 protein; SPR): much faster dissociation rates
Cc1cc(=O)c2c(o1)[C@H](c1cccc(O)c1)CC(=O)O2 [3#] | – | 0.45 s⁻¹ | 2.31 M⁻¹ s⁻¹ | –
COc1cc(CCN)c(-c2csc(-c3ccc(O)cc3)n2)cc1OC [5#] | 3.28 µM | 0.0122 s⁻¹ | 3720 M⁻¹ s⁻¹ | mineralization activity (Alizarin Red S stained spots) (MC3T3-E1 cells [1]): increased the red spot on the cell surface; mineralization activity (Alizarin Red S stained spots) (C2C12 cells [2]): increased the red spot on the cell surface; expression of osteogenic differentiation marker proteins [3]: increased; effect on TNF-α-induced inhibition of osteoblast differentiation (ALP stain and activity) (C2C12 cells [4]): significant ease to TNF-α-induced inhibition of osteoblast differentiation; EC50 (C2C12 cells [4]): 12.2 µM; EC50 (MC3T3-E1 cells [5]): 18.2 µM; effect on TNF-α-induced inhibition of osteoblast differentiation (ALP stain and activity) (MC3T3-E1 cells [5]): significant ease to TNF-α-induced inhibition of osteoblast differentiation; expression level of osteogenic differentiation marker genes (COL-I, ALP, OCN, BMP-2, RUNX-2, OSX) [6]: raised
COc1ccc(C(CC(=O)NC(C)C(N)=O)c2oc(C)cc(=O)c2O)cc1 (centres unmarked) [7#] | – | – | – | effect on TNF-α-induced inhibition (ALP), data not shown (C2C12 cells [4]): only slightly easing of the inhibition resulting from TNF-α; Kd (mouse ELP2 protein): 3.17 µM; koff (mouse ELP2 protein): 0.0011 s⁻¹; kon (mouse ELP2 protein): 347 M⁻¹ s⁻¹
Cc1cc(O)cc(=O)n1C[C@@H](O)c1cccc(O)c1 [11#] | 3.48 µM | 0.000774 s⁻¹ | 222 M⁻¹ s⁻¹ | effect on TNF-α-induced inhibition (ALP), data not shown (C2C12 cells [4]): only slightly easing of the inhibition resulting from TNF-α
COc1cccc(N2Cc3nn(Cc4ccccc4Cl)c(=O)n3C2=O)c1 [6#] | – | 0.415 s⁻¹ | 2.54 M⁻¹ s⁻¹ | –

Continued, in another order:

Kd (mouse ELP2 protein; [7]) | koff (mouse ELP2 protein; [8]) | kon (mouse ELP2 protein; [8]) | Structure (SMILES) | also measured
1.46 µM | 0.000241 s⁻¹ | 165 M⁻¹ s⁻¹ | O=C1c2ccccc2-c2c1c1ccccc1c(=O)n2NCCO [2#] | mineralization activity (Alizarin Red S stained spots) (MC3T3-E1 cells [1]): increased the red spot on the cell surface; mineralization activity (Alizarin Red S stained spots) (C2C12 cells [2]): increased the red spot on the cell surface; expression of osteogenic differentiation marker proteins [3]: increased; effect on TNF-α-induced inhibition of osteoblast differentiation (ALP stain and activity) (C2C12 cells [4]): significant ease to TNF-α-induced inhibition of osteoblast differentiation; EC50 (C2C12 cells [4]): 14.7 µM; EC50 (MC3T3-E1 cells [5]): 29.7 µM; effect on TNF-α-induced inhibition of osteoblast differentiation (ALP stain and activity) (MC3T3-E1 cells [5]): significant ease to TNF-α-induced inhibition of osteoblast differentiation; expression level of osteogenic differentiation marker genes (COL-I, ALP, OCN, BMP-2, RUNX-2, OSX) [6]: raised
– | 0.342 s⁻¹ | 1.85 M⁻¹ s⁻¹ | COCn1ncnc1NCCn1c(C)cc(O)cc1=O [4#] | –
0.0936 µM | 0.00105 s⁻¹ | 11200 M⁻¹ s⁻¹ | CC1CCCC2(C)CC3OC(=O)C(CN4CCN(C(=O)c5ccco5)CC4)C3C=C12 (centres unmarked) [8#] | effect on TNF-α-induced inhibition (ALP), data not shown (C2C12 cells [4]): only slightly easing of the inhibition resulting from TNF-α
